Article PMC3433420 (PLoS ONE, 2012)
Residues, ends and D or L forms follow the SMILES beside them.

Experiments:
[1] = biological target: T1, PIK3R3-C SH2 domain (Homo sapiens, UniProt Q92569); assay: biochemical; format: binding; conditions: FP, PIK3R3-C; mean; NA = no interaction detected
T1 construct: thioredoxin; made in house; host or cells: E. coli BL21(DE3)pLysS

[2] = biological target: T1, PIK3R3-C SH2 domain; assay: Surface plasmon resonance (Biacore 3000); format: binding; conditions: SPR, NA = no interaction detected
Protocol: (§1) All SPR experiments were performed using Biacore 3000 (GE HealthCare, Piscataway, NJ) instrumentation. 6X His-tagged SH2 domain proteins were immobilized on a nitriloacetic acid (NTA) sensor chip (GE HealthCare, Piscataway, NJ) charged with Ni^2+ ions. Dye-free ErbB family peptides were applied to the sensor chip in a single flow cell in solution phase (while the other flow cell was used as a reference control) and binding events were measured under equilibrium conditions. FP false positive [drawing 7] (FPR), false discovery [drawing 8] (FDR), and false negative [drawing 9] (FNR) rates were calculated by defining true positives (TP) as interactions detected by both FP and SPR, true negatives (TN) as interactions detected by neither FP nor SPR; false positives as interactions identified by FP but not validated by SPR; and false negatives (FN) as interactions missed by FP but detected by SPR. Additional details for all methods are provided in the Supplementary Methods.
(§2) A randomly selected set of 12 recombinant SH2 domain proteins and unlabeled (rhodamine dye free) peptides (9 ErbB, 2 GAB1, 2 KIT, 2 MET) were generated for the surface plasmon resonance (SPR) validation study. The 6X His-tagged SH2 domain proteins used in the assay, PLCG1-C, SHC4, VAV2, TNS3, PIK3R3-C, SYK-C, PIK3R1-N, SUPT6H, CRKL, TEC, SHB, and SHC3 were produced and purified as previously described (see “SH2 and PTB domain proteins” section and Jones et al., 2006). Fresh protein stocks were generated so as to avoid bias incurred from proteins previously used in the FP assays. 13-mer peptides corresponding to ErbB1 pY801, ErbB1 pY900, ErbB1 pY978, ErbB1 pY1069, ErbB2 pY685, ErbB pY803, ErbB3 pY912, ErbB4 pY833, ErbB4 pY906, GAB1 pY183, GAB1 pY472, KIT pY570, KIT pY936, MET pY1093 and MET pY1313, were synthesized successfully for the assay using previously described approaches (see “FP competitor peptide synthesis” section). For SPR detection via the Biacore 3000 (GE HealthCare, Piscataway, NJ), His-tagged SH2 domains were immobilized on Biacore NTA sensor chips (GE HealthCare, Piscataway, NJ) pre-charged with Ni^2+ ions in one flow cell while the second served as a negative control reference cell. Peptides were introduced in solution phase to both cells and relative response units (RUs) were recorded from output sensograms. Nine concentrations of peptide and a buffer control, in duplicate, were used to determine KDs using the equilibrium method (best-fit simultaneous modeling for peptide association and disassociation curves).

[3] = biological target: T2, PLCG1-C SH2 domain (Homo sapiens, UniProt P19174); assay: Surface plasmon resonance (Biacore 3000); format: binding; conditions: SPR, NA = no interaction detected
T2 construct: The 6X His-tagged SH2 domain proteins used in the assay, PLCG1-C, SHC4, VAV2; thioredoxin; made in house; host or cells: E. coli BL21(DE3)pLysS
T2 sequence (P19174 668-756 limits assumed): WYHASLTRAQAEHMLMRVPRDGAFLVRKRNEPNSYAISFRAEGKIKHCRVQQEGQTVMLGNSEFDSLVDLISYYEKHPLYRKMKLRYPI
Protocol: as §1, §2

[4] = biological target: T2, PLCG1-C SH2 domain; assay: biochemical; format: binding; conditions: FP, PLCG1-C; mean; NA = no interaction detected
[5] = biological target: T3, TNS3 SH2 domain (Homo sapiens, UniProt Q68CZ2); assay: FP saturation binding assay; conditions: FP saturation assay; Tensin family SH2 domains
T3 sequence (Q68CZ2 1172-1282 limits assumed): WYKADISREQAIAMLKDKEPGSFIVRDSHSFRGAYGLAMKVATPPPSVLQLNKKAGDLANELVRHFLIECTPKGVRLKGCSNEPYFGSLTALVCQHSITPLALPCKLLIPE

[6] = tested on: 93 human SH2 domains and 2 phosphotyrosine binding (PTB) domains; assay: FP saturation binding assay, whole domain panel (protein named per line or not at all)
Protocol: (See Figure 1A) Rhodamine-labeled peptides were dissolved in assay buffer (20 mM HEPES, 100 mM KCl, 0.1% Tween-20, 5 mM DTT, pH 7.8), diluted to a concentration of 20 nM, and plated into black 384-well plates (Corning, Corning, NY) at 5 µL/well using a Perkin Elmer EP3 pipetting workstation (V&P Scientific, Inc., San Diego, CA). SH2, PTB, and thioredoxin control proteins were plated into the first column of 2 mL 96-well plates (Corning) at a concentration of 20 µM and serially diluted 1∶2 into freezing buffer (300 mM NaCl, 50 mM Na2PO4, pH 8, 20% glycerol v/v) eleven times using a Tecan Freedom EVO 100 workstation (Tecan, Männedorf, Switzerland). For the interaction assay, 5 µL of each of the twelve protein concentrations was added to the peptide-containing 384-well plates via the EP3 resulting in a protein dilution range of 0.002–10 µM and a final volume of 10 µL; peptide concentration was fixed at 10 nM. Peptide/protein samples were incubated for 20 minutes at room temperature in the dark and fluorescence polarization (FP) was measured in an Analyst GT multimode reader (Molecular Devices, Sunnyvale, CA) with excitation and emission wavelengths of 530 nm and 555 nm, respectively. Experimental values were output as millipolarization (mP) units and imported into MATLAB (The MathWorks, Inc., Natick, MA) in which equation (1) was used to determine dissociation constants (KDs) for each protein/peptide pairing by least squares nonlinear regression. [drawing 1] (1)
To scale up the number of interaction measurements while minimizing variation introduced by human intervention, we utilized an automated robotic platform (Figure 1A; see experimental procedures and Supplementary Methods) to transfer, incubate, and measure the fluorescence polarization (FP) induced from interactions of a titration series of SH2 domains with synthetic rhodamine-labeled ErbB phosphopeptides. Experimental values were output as millipolarization (mP) units and equation (1) was used to fit apparent midpoint dissociation constants (KDs) for each protein/peptide pair using non-linear regression (see experimental procedures).
For this interaction analysis, we synthesized and queried the interaction of phosphopeptides corresponding to 89 of 92 ErbB family intracellular tyrosines with 93 SH2 domains. Because nine peptide sequences share 100% identity between the receptors in the 4 to 7 amino acids C-terminal to the phosphorylated tyrosine, our peptide set consisted of 81 phosphopeptides corresponding to the 89 unique tyrosine containing sequences (Table S2). This peptide set represents a 50% increase over the three PM studies performed to date. We were therefore able to obtain a more systematic and unbiased view of the relative SH2 domain recruitment potential of each receptor. Although most ErbB receptor auto-phosphorylation sites have been detected frequently by mass spectrometry because of their high relative modification stoichiometry, non-auto-phosphorylation sites have been reported less frequently in the literature (Table S3). We reasoned that many physiologically relevant and uncharacterized ErbB tyrosines of low phosphorylation stoichiometry may exist and that our comprehensive interaction analysis might implicate their importance in mediating physiological interactions. We tested the majority of interactions (7099/8160 (87.0%); Figure S3) three or more times and reported standard error for all interactions that were detected in at least three FP runs (Table S4). […] Analysis of this polarization data may be useful for inferring how SH2 proteins bind to different peptide sequences. Larger proteins and proteins binding closer to the N-terminal rhodamine tag of a given peptide would be expected to induce higher maximal polarization (the calculated maximal polarization value at infinite protein concentration) than proteins binding farther from the tag. In addition to phosphopeptides, we queried a representative set of 27 non-phosphopeptides against the entire domain set. […]

[7] = biological target: T4, TNS1 SH2 domain (Homo sapiens, UniProt Q9HBL0); assay: FP saturation binding assay; conditions: Tensin family SH2 domains
T4 sequence (Q9HBL0 1567-1676 limits assumed): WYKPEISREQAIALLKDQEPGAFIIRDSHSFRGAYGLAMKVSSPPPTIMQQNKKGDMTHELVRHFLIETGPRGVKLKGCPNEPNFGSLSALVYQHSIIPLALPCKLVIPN

[8] = tested on: TENC1 SH2 domain; assay: FP saturation binding assay; conditions: Tensin family SH2 domains
[9] = biological target: SH2 and PTB domains; conditions: protein SYK-N; ref Kaushansky et al. Mol Biosys 2008; cited from earlier work
Excerpt: Supplement pone.0044471.s022.xlsx, sheet "Most recent PM interactions" | column: Kd || Supplement pone.0044471.s022.xlsx, sheet "All original PM interactions" | column: Kd

Compound | Kd [3] [µM] | Kd [4] [µM] | affinity of recruitment of TNS3 [5] | affinity of recruitment of TNS1 [7] | affinity of recruitment of TENC1 [8] | other results
CC(C)C[C@H](NC(=O)[C@H](CCC(=O)O)NC(=O)[C@H](Cc1c[nH]c2ccccc12)NC(=O)[C@@H](NC(=O)[C@@H](NC(=O)[C@@H](NC(=O)CNC(=O)[C@H](Cc1ccc(OP(=O)(O)O)cc1)NC(=O)[C@H](CO)NC(=O)[C@H](Cc1c[nH]c2ccccc12)NC(=O)[C@@H](NC(=O)[C@@H](N)CC(=O)O)C(C)C)C(C)C)[C@@H](C)O)C(C)C)C(=O)N[C@@H](CC(=O)O)C(=O)O [ErbB1 900] | 10.9 | 15.5 | – | – | – | Kd [1]: 5.83 µM; Kd [2]: 1470 nM
CC[C@H](C)[C@H](NC(=O)[C@@H](NC(=O)[C@H](CC(C)C)NC(=O)[C@H](Cc1ccc(OP(=O)(O)O)cc1)NC(=O)[C@H](CCCNC(=N)N)NC(=O)[C@H](CCC(N)=O)NC(=O)[C@@H]1CCCN1C(=O)[C@@H](N)CC(=O)O)C(C)C)C(=O)N[C@@H](CCC(N)=O)C(=O)NCC(=O)N[C@@H](CC(=O)O)C(=O)N[C@@H](CCC(=O)O)C(=O)N[C@@H](CC(=O)O)C(=O)O [ErbB1 978] (HELM PEPTIDE1{D.P.Q.R.[O=C([C@H](Cc1ccc(OP(=O)(O)O)cc1)N[*:1])[*:2]].L.V.I.Q.G.D.E.D}$$$$V2.0) | 0.43 | 1.37 | – | – | – | –
CSCC[C@H](NC(=O)CNC(=O)[C@@H](N)CCCCN)C(=O)N[C@@H](CCSC)C(=O)N[C@@H](Cc1ccc(OP(=O)(O)O)cc1)C(=O)N[C@@H](CC(C)C)C(=O)N[C@@H](CCC(=O)O)C(=O)N[C@@H](CCC(=O)O)C(=O)N[C@@H](CCCNC(=N)N)C(=O)N[C@@H](CCCNC(=N)N)C(=O)N[C@@H](CC(C)C)C(=O)N[C@H](C(=O)N[C@@H](CC(=O)O)C(=O)O)C(C)C [ErbB4 833] (HELM PEPTIDE1{K.G.M.M.[O=C([C@H](Cc1ccc(OP(=O)(O)O)cc1)N[*:1])[*:2]].L.E.E.R.R.L.V.D}$$$$V2.0) | 3.46 | 4.73 | – | – | – | –
AKGMpYYLEEHGMd [ErbB3 pY823] | – | – | relatively high affinity | relatively high affinity | relatively high affinity | interaction with the SH2/PTB domain panel ([6]; KD <= 20 µM counted as interaction): reproducibly interacted at high affinity with many SH2 domains; SH2 domains found to interact ([6]; high-confidence interactions (Table S11, Figure S14)): interacted with Src kinase and tensin family SH2 domains
CLLDpYVREHKDNd [ErbB1 pY801] | – | – | relatively high affinity | relatively high affinity | relatively high affinity | Kd [9]: 560 nM
